Here are results for 3 molecules from patent US5530157A, “Anti-inflammatory benzoic acid derivatives” (Scios Nova Inc., priority 1995, dated 1996).

The subject of test [1] is polymorphonuclear neutrophils. Kind of test: Adherence of PMN to serum coated wells, TNF-α. In kind it is cell-based. The note with it: Homo sapiens, Polymorphonuclear neutrophil, 20 min, TNF-α 3 nM, read-out: IC50 to inhibit adhesion, TNF-α serum. The source says:
(§1) Several in vitro assays were employed to determine the ability of compounds of the invention to function as anti-inflammatory agents. One group of assays measured the ability of the compounds to inhibit adherence of polymorphonuclear neutrophils to serum coated wells (in the presence of either TNF-α or PAF) or to human umbilical vein endothelial cells (in the presence of INF-γ). Another group of assays measured the ability of the compounds to inhibit the release of elastase or superoxide from activated neutrophils. These assays were performed in the following manner.
Isolation of PMN: Blood was drawn into syringes containing heparin (1 U/mL), from human volunteers (free of any medication for at least 48 hrs). 30 mL of blood was layered over a gradient of 10 mL 1.077 g/mL Histpaque (Sigma, St. Louis, Mo.), and centrifuged at room temperature, 400×g for 20 min. All subsequent manipulations were carried out at room temperature, with endotoxin free reagents, and using polypropylene pipettes and tubes, to prevent activation of the PMN. The pinkish PMN layer immediately above the RBC was collected and washed 2× with Hank's buffered salt solution with calcium and magnesium, 0.2% glucose, and 10 mM HEPES, pH 7.2 (HBSS++) by centrifugation at 400×g for 10 min. Pellets were suspended in 8 mL 0.9% NaCl, and RBC lysed by the addition of 24 mL water for 40 sec, followed by the addition of 8 mL of 3.6% NaCl. After centrifugation at 200×g for 8 min, RBC ghosts were aspirated from the top of the PMN pellet, and cells washed with HBSS++. PMN adherence to protein substrates: 96 well tissue culture plates were coated with 10% pooled human serum (North American Biological,;, Miami, Fla.) in phosphate buffered saline (PBS) for 1 hr at 37° C., followed by washing 3× with PBS. Test compounds were prepared in DMSO as 100× stocks. PMN (4×10^6 /mL) were preincubated with test compounds for 10 min at 37° C. in serum-coated wells. Tumor necrosis factor (TNF-α) was added to 3 nM or platelet aggregation facor (PAF) to 1 μM, and adherence was carried out for 20 or 10 min, respectively. Nonadherent cells were aspirated, and wells washed two times with warm PBS with calcium and magnesium, with blotting of the inverted plate following each aspiration. Adherent PMN were quantitated using a BCA protein assay (Pierce, Rockford, Ill.).

The subject of test [2] is neutrophils. Kind of test: Elastase release from neutrophils, fMLP. The note with it: Homo sapiens, Neutrophil; fMLP 200 nM, cytochalasin b; read-out: IC50 to inhibit elastase release, fMLP/ER. In kind it is cell-based.
Source text: as §1
Elastase release. Neutrophils (5×10^6 /ml in HBSS) were preincubated for 5 min at 37° C. with cytochalasin b (5 μg/ml). Experiments were performed in microtubes (96 per rack) to which were added the cell suspension, test compound (50 nM-500 μM), and one of several activators (fMLP, 200 nM, C5a, 24 nM; PAF, 20nM). After incubation (30 min, 37° C.) the tubes were centrifuged (1 min, 1500 rpm) and the supernatants assayed for elastase activity according to the following protocol:
Specifically, 10 μl of purified human neutrophil elastase standard or of sample was added to 70 μl or 0.1M Tris pH 7.5, 0.5% Brij detergent and 10 μl or 5 mM elastase substrate (methoxysuccinyl-alanyl-alanyl-prolyl-valyl paranitroanilide) in a 96 well microliter plate. Plates were indubated for 60 min at 37° C. and absorbance was read at 410 nm on a microplate reader. Elastase activity was quantitated relative to standards.

The test system of test [3] is neutrophils. Kind of test: Superoxide production by PMN, fMLP. The test is classed as cell-based. The note with it: Homo sapiens, Neutrophil; fMLP 300 nM, TNF preincubation; read-out: IC50 to inhibit superoxide production, fMLP/O2.
Source text: as §1
Superoxide production. Superoxide production by PMN was measured as the superoxide dismutase (SOD)-inhibitable reduction of ferricytochrome c. […] Therefore, subsequent experiments were performed in the presence of cytochrome c only. In all cases, experiments were carried out in 96 well plates. Before the addition of cells, plates were coated by incubating each well with 200 μl of 10% human serum for 1 h in 37° C. Plates were then washed several times with PBS containing 10 mM CaCl2 and MgCl2. Neutrophils, resuspended in Hank's balanced salt solution (HBSS) to a final concentration of 4×10^6 cells/ml, were preincubated with TNF (10 ng/ml) for 10 min at 37° C. in the presence of cytochrome c (75 μm). Experiments were then performed with 100 μl of this cell suspension added to each well, followed by the addition of 10 μl of an aqueous dilution of test compound (50 nm-[…]). Immediately after the addition of test compound, a 10 μl aliquot of activators (fMLP, 300 nM; PAF, 20 nM; C5a, 5 μg/ml) was added to each well. Plates were immediately transferred to a preheated Thermomax kinetic microplate reader and the change in absorbance at […] was recorded over a 3 min period.

Test [4] deals with neutrophil accumulation in the cutaneous Reverse Passive Arthus reaction. The test can be described thus: Neutrophil accumulation in the cutaneous Reverse Passive Arthus reaction in rats. The test is classed as in vivo, Male Sprague Dawley rats. The note with it: rat, i.p., 1.4 mg/kg, n = 4. How it is done: Two in vivo models of inflammation were used to assess the anti-inflammatory activity of compounds of the invention. One model measures neutrophil accumulation in thioglycollate-induced peritonitis in mice. The other measures neutrophil accumulation in the cutaneous Reverse Passive Arthus reaction in rats. These assays were carried out as follows.
Male Sprague Dawley rats were treated with test compounds by intraperitoneal injection of 1.4 mg/kg in 1% Tween, pH 9.0 vehicle. After 1 hr, animals were lightly anesthetized with 2% isoflurane, v/v, injected by intravenous route with 1 ml of 5 mg/ml human serum albumin, immediately follwed by intracutaneous administration of 75 μl of a solution of 4 mg/ml of goat anti-human serum albumin. Animals were anesthetized 4 hrs after antigen-antibody treatment. Punch biopsies of the dorsal injection sites were performed with one biopsy weighed for wet/dry weight ratio determination. The remaining two skin biopsies were used for measuring myeloperoxidase content and were minced, weighed and homogenized for 30 sec in 20 mM phosphate buffer (pH 7.4). After centrifugation (20 min, 6000×g, 4° C.) the supernatant was decanted and the pellet resuspended in 50 mM phosphate buffer (pH 6.0) containing 0.5% hexadecyltrimethylammonium bromide. After three freeze/thaw cycles, the pellet was centrifuged (15 min, 20000×g, 4° C.) and 100 μl aliquots were added to 2.9 ml of assay buffer (50 mM phosphate buffer, 0.167 mg/ml o-dianiside, 0.05% H2 O2, pH 6.0). Absorbance at 460 nm was measured at 15 min. Results shown in Table IV were calculated as absorbance units/g dry weight.

For the molecule `O=C(O)c1ccc(/C=C/c2ccccc2-c2ccccc2)cc1` [NPC 18730, 4-[2-(biphenyl)-E-ethenyl]benzoic acid], the figures for the IC50 in test [1], in test [2] and in test [3] were 2900 nM, 6250 nM and 340 nM, respectively. For the same molecule, the “Reverse Passive Arthus % Inhibition” value in test [4] was 40%.

Regarding `O=C(O)c1ccc(C=Cc2ccccc2Oc2ccccc2)cc1` [NPC 18801, 2'-phenoxy-4-stilbenecarboxylic acid], the results for the IC50 in test [1], in test [2] and in test [3] were 6900 nM, 7500 nM and 150 nM, respectively. Further, in test [4], the “Reverse Passive Arthus % Inhibition” value is reported as 3%.

Regarding `O=C(O)c1ccc(/C=C/c2ccccc2-c2ccc(Cl)c(Cl)c2)cc1` [NPC 18818, 4-{2-[2-(3,4-dichlorophenyl)phenyl]-(E)-ethenyl] benzoic acid], the IC50 came to 1800 nM in test [1], 1200 nM in test [2] and 150 nM in test [3]. For the same molecule, in test [4], the “Reverse Passive Arthus % Inhibition” value is reported as 8%.
